# Test results from ChEMBL document CHEMBL1201862, “PubChem BioAssay data set” (2004).
#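 Test compounds were applied to cells in 96-well plates for 48 hours at 5 doses. GI50 is the concentration that inhibits growth by half.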 The source made the active and inactive calls. Rule as the data show it: active = GI50 up to about 1.1 µM and inactive = higher.
# Experiments:
# Test in all cases: NCI-60 cell line screen, 48 h
# DLD-1 = tested on: DLD-1
# DMS-273 = tested on: DMS-273
# M19-MEL = tested on: M19-MEL
# DMS-114 = tested on: DMS-114
# Hs-578T = tested on: Hs-578T
# SNB-78 = tested on: SNB-78
# LXFL 529 = tested on: LXFL 529
# KM-20L2 = tested on: KM-20L2
# RXF 631 = tested on: RXF 631
Structure (SMILES),GI50 (DLD-1),GI50 (DMS-273),GI50 (M19-MEL),GI50 (Hs-578T),GI50 (SNB-78),GI50 (KM-20L2),other results
Cc1c2cc[n+](C)cc2c(C)c2c1[nH]c1ccccc12,1.68 µM (inactive),1.5 µM (inactive),0.984 µM (active),–,–,–,GI50 (DMS-114): 0.275 µM (active)
Cc1ccc(S(=O)(=O)NCCCSCCSCCCN)cc1,–,–,–,> 100 µM (inactive),–,–,–
Nc1nc(-c2ccccc2)nc2oc(-c3cccs3)nc12,–,–,–,> 100 µM (inactive),–,–,–
CC(=O)c1ccc2c3c1[C@@H]1O[C@@H]1c1cccc(c1-3)[C@@H]1O[C@H]21,–,–,–,14.9 µM (inactive),–,–,–
S=c1sc2c(s1)SCCCCSCCCCSc1sc(=S)sc1SCCCCSCCCCS2,–,–,–,30.2 µM (inactive),–,–,–
O=C1C=CC(=O)c2c1ccc1c3ccccc3n(CCCCCn3c4ccccc4c4ccc5c(c43)C(=O)C=CC5=O)c21,–,–,–,21.2 µM (inactive),–,–,–
C=CCN1C[C@H](C)N([C@H](c2ccc(C(=O)N(CC)CC)cc2)c2cccc(OC)c2)C[C@H]1C [SNC-80],–,–,–,26 µM (inactive),–,–,–
COc1cc(C2(O)c3ccccc3C3=NCCN32)cc(OC)c1OC (stereo not given),–,–,–,> 100 µM (inactive),–,–,–
Nc1nc(-c2cccc([N+](=O)[O-])c2)cc(-c2cc(-c3cccc([N+](=O)[O-])c3)nc(N)n2)n1,–,–,–,> 100 µM (inactive),–,–,–
CC(=O)c1c2c(cc3c1CC1(C3)Cc3cc4c(c(C(=O)O)c3C1)CCC4)CCC2 (stereo not given),37.1 µM (inactive),35.6 µM (inactive),37 µM (inactive),–,55.6 µM (inactive),–,GI50 (LXFL 529): 40.7 µM (inactive); GI50 (DMS-114): 36.3 µM (inactive)
C=CC1(c2ccc(Br)cc2)OCCCO1,–,–,–,> 100 µM (inactive),–,–,–
CC12CC(OC(=O)[C@]1(C)O)[C@@H]([C@]1(O)CC[C@H]3[C@@H]4C[C@H]5O[C@]56[C@@H](O)C=CC(=O)[C@]6(C)[C@H]4CC[C@@]31C)C2 (stereo not given in full),–,–,–,6.71 µM (inactive),–,–,–
CC(C)NC(=O)OCc1c2c(n(C)c1COC(=O)NC(C)C)-c1ccccc1CC2,11.9 µM (inactive),13.9 µM (inactive),9.89 µM (inactive),–,11.4 µM (inactive),14 µM (inactive),GI50 (DMS-114): 5.43 µM (inactive)
O=C(Cc1nc2ccc(C(=O)c3ccccc3)cc2nc1O)C(=O)Nc1ccc(C(F)(F)F)cc1[N+](=O)[O-],> 100 µM (inactive),99.1 µM (inactive),58.1 µM (inactive),–,81.1 µM (inactive),56.4 µM (inactive),GI50 (RXF 631): 96.6 µM (inactive); GI50 (LXFL 529): 35.8 µM (inactive)
O=C1CCCCCCCCCCC1CN1CCCCC1 (stereo not given),54.8 µM (inactive),> 100 µM (inactive),> 100 µM (inactive),–,> 100 µM (inactive),31.3 µM (inactive),GI50 (LXFL 529): > 100 µM (inactive); GI50 (DMS-114): 60.5 µM (inactive)
CC(=O)Oc1cc(Cl)c(OC(C)=O)c2c(OC(C)=O)c(C)c(O[Si](C)(C)C(C)(C)C)cc12,1.85 µM (inactive),5.47 µM (inactive),–,–,3.12 µM (inactive),17.4 µM (inactive),GI50 (DMS-114): 3 µM (inactive)
Cc1ccc2nc(CN3CCCCC3)cc(=O)n2c1,–,–,–,> 100 µM (inactive),–,–,–
CC(C)N(Cc1ccccc1)S(=O)(=O)c1nc(C(C)(C)C)n[nH]1,–,–,–,> 100 µM (inactive),–,–,–
CN(C)c1ccc(/N=C2/C=CC(=C(C#N)C#N)c3ccccc32)cc1,0.294 µM (active),0.303 µM (active),0.904 µM (active),0.361 µM (active),0.479 µM (active),0.209 µM (active),GI50 (DMS-114): 0.234 µM (active)
O=C1N[C@@H]2C(=C[C@H](O)[C@@H](O)[C@H]2O)c2cc3c(c(O)c21)OCO3 [NARCICLASINE],0.045 µM (active),0.045 µM (active),–,–,0.045 µM (active),0.045 µM (active),–
CN(C)[C@@H]1C(O)=C(C(=O)NCN2CCN(C(=N)NC(=N)N)CC2)C(=O)[C@@]2(O)C(O)=C3C(=O)c4c(O)cccc4[C@@](C)(O)[C@H]3C[C@@H]12,0.0466 µM (active),0.252 µM (active),0.31 µM (active),–,0.0698 µM (active),0.299 µM (active),GI50 (RXF 631): 0.166 µM (active); GI50 (LXFL 529): 0.0857 µM (active)
Oc1ccc(/C=C/c2cccc(/C=C/c3ccc(O)c(O)c3)n2)cc1O,–,–,–,54.5 µM (inactive),–,–,–
Cc1ccc(S(=O)(=O)NNC(C[N+](=O)[O-])c2ccccc2)cc1 (stereo not given),–,–,–,44.4 µM (inactive),–,–,–
CCOC(=O)c1c(-c2ccc(Cl)cc2)c(C#N)c(=S)n(C2OC(CO)C(O)C(O)C2O)c1-c1ccccc1 (stereo not given),–,–,–,24.2 µM (inactive),–,–,–
C/C(=N\O)C(CN(C)C)C(c1ccccc1)c1c(O)c2ccccc2oc1=O (stereo not given),> 100 µM (inactive),> 100 µM (inactive),> 100 µM (inactive),–,> 100 µM (inactive),> 100 µM (inactive),GI50 (LXFL 529): > 100 µM (inactive); GI50 (DMS-114): > 100 µM (inactive)
NCCC(=O)NC(Cc1c[nH]cn1)C(=O)O (stereo not given),–,–,–,> 100 µM (inactive),–,–,–
O=S1(=O)C[C@@H](O)[C@H](O)CS1,> 100 µM (inactive),> 100 µM (inactive),> 100 µM (inactive),–,> 100 µM (inactive),> 100 µM (inactive),GI50 (LXFL 529): > 100 µM (inactive); GI50 (DMS-114): > 100 µM (inactive)
O=C(O)CSc1ccc(N=C=S)cc1,–,–,–,47.5 µM (inactive),–,–,–
Cc1c2ccccc2c(CSC(=N)N)c2ccccc12,–,–,–,0.172 µM (active),–,–,–
